Source: patent US5948782A, “Pharmaceutical composition containing quinoline and quinazoline derivatives and novel compounds therefor” (Takeda Chemical, priority 1992, dated 1999)

How the values were obtained:
[1] = tested on: IL-1β; test: Anti-IL-1 activity (extracellular substrates of rat cartilage cells); type: cell-based; details: 72 h, IL-1β 0.2 ng/ml, 3 days, read-out: IL-1 inhibitory activity (%)
Experimental: Rat cartilage cells were prepared according to the known method [Fujio Suzuki et al., Sin Seikagaku Jikken Kohza, 18, p.871-875 (1990)] and cultivated in Dulbecco's Medium containing 10% fetal bovine serum. After 8 days, various concentrations of a test drug and IL-1β (0.2 ng/ml) were added, and the cells were cultivated for additional 3 days. The amount of extracellular substrates thus produced was determined.
Although IL-1β inhibits the synthesis of extracellular substrates of cartilage cells, addition of the drug inhibits the IL-1 activity and the amount of extracellular substrates synthesized was recovered.

[2] = tested on: Rat Adjuvant Arthritis; test: Effects on Rat Adjuvant Arthritis; type: in vivo; details: 336 h, Lewis rats, 50 mg/kg once a day for 14 days; for change in vivo at 50 mg/kg: based on drug-unadministered rats, read-out: Increase rate of body weight (%); for inhibition in vivo at 50 mg/kg: left hind leg, 14th day, read-out: Swelling inhibitory rate (%)
[3] = tested on: mouse phenylquinone writhing; test: Analgesic Activity in Mice (phenylquinone writhing model); type: in vivo; details: Slc:ICR mice, 50 mg/kg orally, 20 minutes
Experimental: Analgesic Activity in Mice
A drug (50 mg/kg) suspended in 5% acacia was administered orally to Slc:ICR mice (male, 4 weeks old). After 30 minutes, a 0.02% phenylquinone solution (0.1 ml/[…]) in 5% ethanol was administered intraperitoneally. Writhing and stretching reactions for 20 minutes after the injection were calculated for each mouse to evaluate analgesic activity of the test drug [Siegmund, E. et al.; Proc. Soc. Exp. Biol. Med., 95, 729 (1957)].

[4] = tested on: Rat Carrageenin Paw Edema; test: Rat Carrageenin Paw Edema Inhibitory Activity; type: in vivo; details: Jcl:SD rats, 50 mg/kg orally, 3 hours after carrageenin
Experimental: Rat Carrageenin Paw Edema Inhibitory Activity
The volume of a planter part of a right hind leg of Jcl:SD rats (male, 6 weeks old) was measured, and then suspension of a test drug (50 mg/kg) in 5% acacia was administered orally. Then water was administered additionally so that the total amount of administered liquid became 5 ml/rat. After 1 hour, a suspension (0.05 ml) containing 1% carrageenin in physiological saline was injected intradermally into the plantar to induce swelling [Winter, C. A. et al; Proc. Soc. Exp. Biol. Med., 111, 544 (1962)]. The volume of the right hind leg was measured again 3 hours after the carrageenin injection, and swelling inhibitory rate was calculated from the difference in the volumes before and after the injection.

[5] = tested on: Antigen-responsive T cell; test: Antigen-Responsive T Cell Growth Inhibitory Activity (PPD-stimulated 3H-Tdr incorporation); type: cell-based, Lewis rats; details: PPD 2 μg/ml, Lewis rat T cells, read-out: Antigen-responsive T cell growth inhibitory rate (%)
Experimental: Antigen-Responsive T Cell Growth Inhibitory Activity
According to the method of Test Example 1, adjuvant arthritis was induced in Lewis rats (male, 7 weeks old). After 14 days, lymphonodi inguinales were excised. Then, a single-cell suspension was prepared by using RPMI-1640 medium containing 5% fetal bovine serum and then incubated at 37° C. for 1 hour in a nylon wool column. The cells were eluted from the column with the same medium. The non-adsorptive cell-fraction was used as T cells.
On the other hand, spleen cells were taken out from unsensitized Lewis rats (male, 8 to 9 weeks old) and irradiated with soft X-rays (20,000 R). To the spleen cells (1×10^5 cells/well) were added the above T cells (5×10^5 cells/well), PPD (Purified Protein Derivatives; final concentration: 2 μg/ml) and 2% Lewis rat serum (treated at 56° C. for 30 minutes). The mixture was incubated at 37° C. for 72 hours in a 5% carbonic acid incubator. Further, ^3 H-Tdr (0.5 μCi/well) was added followed by incubation for 24 hours. The cells were recovered, and the radioactivity of ^3 H-Tdr incorporated into the cells was determined. The test drug was added to the cell suspension just before the addition of PPD, and effects on incorporation of ^3 H-Tdr into the cells were observed.

[6] = tested on: mice; test: Oral toxicity in mice; type: in vivo; details: 300 mg/kg administered orally to mice
Experimental: The compounds of the present invention have low toxicity. For example, when 300 mg/kg of the compounds prepared in Examples 36, 45, 47, 54 and 64 were administered orally to mice, no mice died. Therefore, the compounds of the present invention are useful as an anti-inflammatory agent, particularly an agent for treating arthritis producing inflammatory symptoms, in humans and other mammals.

CCOC(=O)c1c(CSCc2ccc(Cl)cc2)nc2cc(OC)c(OC)cc2c1-c1ccc(OC)c(OC)c1 [Example 41, ethyl 6,7-dimethoxy-4-(3,4-dimethoxyphenyl)-2-[(4-chlorophenyl)methylthiomethyl]quinoline-3-carboxylate]
inhibition at 1 µM [1]: 17%
inhibition at 10 µM [1]: 50%

CCOC(=O)c1c(CSc2nccn2C)nc2cc(OC)c(OC)cc2c1-c1ccc(C)cc1 [Example 33, ethyl 6,7-dimethoxy-4-(4-methylphenyl)-2-[(1-methylimidazol-2-yl)thiomethyl]quinoline-3-carboxylate]
change in vivo at 50 mg/kg [2]: 12%
inhibition in vivo at 50 mg/kg [2]: 67%

CCOC(=O)c1c(CSc2nncn2C)nc2cc(OC)c(OC)cc2c1-c1ccc(OC)c(OC)c1 [Example 35, ethyl 6,7-dimethoxy-4-(3,4-dimethoxyphenyl)-2-[(4-methyl-1,2,4-triazol-3-yl)thiomethyl]quinoline-3-carboxylate]
change in vivo at 50 mg/kg [2]: 11%
inhibition in vivo at 50 mg/kg [2]: 64%

CCOC(=O)c1c(CSc2nc3ccccc3[nH]2)nc2cc(OC)c(OC)cc2c1-c1ccc(OC)cc1 [Example 27, ethyl 6,7-dimethoxy-4-(4-methoxyphenyl)-2-[(benzimidazol-2-yl)thiomethyl]quinoline-3-carboxylate]
Inhibitory rate (%) [3]: 39%

CCOC(=O)c1c(CSc2nccn2C)nc2cc(OCC)c(OCC)cc2c1-c1ccc(OC)c(OC)c1 [Example 72, ethyl 6,7-diethoxy-4-(3,4-dimethoxyphenyl)-2-[(1-methylimidazol-2-yl)thiomethyl]quinoline-3-carboxylate]
change in vivo at 50 mg/kg [2]: 27%
inhibition in vivo at 50 mg/kg [2]: 50%

CCOC(=O)c1c(CSc2nccn2C)nc2cc(OC)c(OC)cc2c1-c1ccc(OC)cc1 [Example 28, ethyl 6,7-dimethoxy-4-(4-methoxyphenyl)-2-[(1-methylimidazol-2-yl)thiomethyl]quinoline-3-carboxylate]
Inhibitory rate (%) [3]: 43%
inhibition at 1 µM [1]: 34%
inhibition at 10 µM [1]: 44%

CCOC(=O)c1c(CSc2nc3ccccc3s2)nc2cc(OC)c(OC)cc2c1-c1ccc(OC)c(OC)c1 [Example 60, ethyl 6,7-dimethoxy-4-(3,4-dimethoxyphenyl)-2-[(benzothiazol-2-yl)thiomethyl]quinoline-3-carboxylate]
Swelling inhibitory rate (%) [4]: 31%
inhibition at 1 µM [5]: 59%
inhibition at 10 µM [5]: 91%

CCOC(=O)c1c(CCc2nccn2C)nc2cc(OC)c(OC)cc2c1-c1ccc(OC)c(OC)c1 [Example 87, ethyl 6,7-dimethoxy-4-(3,4-dimethoxyphenyl)-2-[2-(1-methylimidazol-2-yl)ethyl]quinoline-3-carboxylate]
change in vivo at 50 mg/kg [2]: 27%
inhibition in vivo at 50 mg/kg [2]: 75%

CCOC(=O)c1c(CSc2nccn2C)nc2cc(OC)c(OC)cc2c1-c1ccc(OC)c(OC)c1 [Example 36, ethyl 6,7-dimethoxy-4-(3,4-dimethoxyphenyl)-2-[(1-methylimidazol-2-yl)thiomethyl]quinoline-3-carboxylate]
change in vivo at 50 mg/kg [2]: 30%
inhibition in vivo at 50 mg/kg [2]: 48%
Inhibitory rate (%) [3]: 59%
inhibition at 1 µM [1]: 22%
inhibition at 10 µM [1]: 48%
inhibition at 1 µM [5]: 33%
inhibition at 10 µM [5]: 79%
mortality [6]: no mice died

CCOC(=O)c1c(CSc2nc3ccccc3[nH]2)nc2cc(OC)c(OC)cc2c1-c1ccc(OC)c(OC)c1 [Example 53, ethyl 6,7-dimethoxy-4-(3,4-dimethoxyphenyl)-2-[(benzimidazol-2-yl)thiomethyl]quinoline-3-carboxylate]
inhibition at 1 µM [1]: 39%
inhibition at 10 µM [1]: 71%
inhibition at 1 µM [5]: 51%
inhibition at 10 µM [5]: 91%

COc1ccc(-c2nc(CCc3nccn3C)nc3cc(OC)c(OC)cc23)cc1OC [Example 88, 6,7-dimethoxy-4-(3,4-dimethoxyphenyl)-2-[2-(1-methylimidazol-2-yl)ethyl]quinazoline]
change in vivo at 50 mg/kg [2]: 24%
inhibition in vivo at 50 mg/kg [2]: 62%

CCOC(=O)c1c(CSc2ccc(Cl)cc2)nc2cc(OC)c(OC)cc2c1-c1ccc(OC)c(OC)c1 [Example 42, ethyl 6,7-dimethoxy-4-(3,4-dimethoxyphenyl)-2-[(4-chlorophenyl)thiomethyl]quinoline-3-carboxylate]
Inhibitory rate (%) [3]: 47%

CCOC(=O)c1c(CSc2nc3ccc(F)cc3[nH]2)nc2cc(OC)c(OC)cc2c1-c1ccc(OC)c(OC)c1 [Example 54, ethyl 6,7-dimethoxy-4-(3,4-dimethoxyphenyl)-2-[(5-fluorobenzimidazol-2-yl)thiomethyl]quinoline-3-carboxylate]
Swelling inhibitory rate (%) [4]: 21%
mortality [6]: no mice died

CCOC(=O)c1c(C[S+]([O-])c2nccn2C)nc2cc(OC)c(OC)cc2c1-c1ccc(OC)c(OC)c1 (stereo not drawn) [Example 2, ethyl 6,7-dimethoxy-4-(3,4-dimethoxyphenyl)-2-[(1-methylimidazol-2-yl)sulfinylmethyl]quinoline-3-carboxylate]
change in vivo at 50 mg/kg [2]: 39%
inhibition in vivo at 50 mg/kg [2]: 73%

CCOC(=O)c1c(CSc2nccn2C)nc2cc(OC)c(OC)cc2c1-c1ccc2c(c1)OCO2 [Example 69, ethyl 6,7-dimethoxy-4-(3,4-methylenedioxyphenyl)-2-[(1-methylimidazol-2-yl)thiomethyl]quinoline-3-carboxylate]
change in vivo at 50 mg/kg [2]: 17%
inhibition in vivo at 50 mg/kg [2]: 63%

CCOC(=O)c1c(C[S+]([O-])c2nc3ccccc3[nH]2)nc2cc(OC)c(OC)cc2c1-c1ccc(OC)c(OC)c1 (stereo not drawn) [Example 3, ethyl 2-[(2-benzimidazolyl)sulfinylmethyl]-6,7-dimethoxy-4-(3,4-dimethoxyphenyl)quinoline-3-carboxylate]
Swelling inhibitory rate (%) [4]: 23%

CCOC(=O)c1c(CSc2nccc(=O)[nH]2)nc2cc(OC)c(OC)cc2c1-c1ccc(OC)c(OC)c1 [Example 45, ethyl 6,7-dimethoxy-4-(3,4-dimethoxyphenyl)-2-[(6(1H)-pyrimidon-2-yl)thiomethyl]quinoline-3-carboxylate]
inhibition at 1 µM [5]: 36%
inhibition at 10 µM [5]: 70%
mortality [6]: no mice died

CCOC(=O)c1c(CSc2nnc3ccccn23)nc2cc(OC)c(OC)cc2c1-c1ccc(OC)c(OC)c1 [Example 66, ethyl 6,7-dimethoxy-4-(3,4-dimethoxyphenyl)-2-[(pyrido[1,2-a][1,3,4]triazol-5-yl)thiomethyl]quinoline-3-carboxylate]
Inhibitory rate (%) [3]: 58%

CCOC(=O)c1c(CSc2ncccc2O)nc2cc(OC)c(OC)cc2c1-c1ccc(OC)c(OC)c1 [Example 46, ethyl 6,7-dimethoxy-4-(3,4-dimethoxyphenyl)-2-[(3-hydroxypyridin-2-yl)thiomethyl]quinoline-3-carboxylate]
inhibition at 1 µM [5]: 39%
inhibition at 10 µM [5]: 92%

CCOC(=O)c1c(CSC2=NCCS2)nc2cc(OC)c(OC)cc2c1-c1ccc(OC)c(OC)c1 [Example 47, ethyl 6,7-dimethoxy-4-(3,4-dimethoxyphenyl)-2-[(2-thiazolin-2-yl)thiomethyl]quinoline-3-carboxylate]
inhibition at 1 µM [5]: 61%
inhibition at 10 µM [5]: 93%
mortality [6]: no mice died
